Data from US20070203233A1, “NOVEL 2-(alpha-N-PENTANONYL)BENZOATES, THEIR PREPARATION AND USE” (priority 2004, published 2007).
Marks after values point to notes of the source that are not given here.

How the values were obtained:
[1] = The Stability to Light; type: physicochemical; conditions: 10 days, HPLC
[2] = test system: model rats of middle cerebral artery thrombosis (MCAT); experiment: Effects on neural symptoms of MCAT rats; type: in vivo, SD rats; parameters: key to Scores 6 hours / Scores 24 hours: 0/1 per test, summed (max 4); higher = more severe behavioral disorder; conditions: for Scores 6 hours: behavioral score 6 h after operation (full mark 4); for Scores 24 hours: behavioral score 24 h after operation (full mark 4)
Procedure: (1) Grouping and administration: […] Preventive administration was conducted by gavage one time per day for 3 days prior to the model being established. The model was established on day 4, and a dosage of one day was administered by gavage immediately after the model was established. Another dosage of one day was again administered by gavage 12 hours after the model was established. Equivalent amount of the vehicle was administered to the control group. […] Description of technique and early neuropathological consequences following middle cerebral artery occlusion. J Cereb Blood Flow Metab, 1981, 1: 53), and fixed in lateral decubitus position. A bowtype incision of 1.5 cm long was made at the midpoint between canthus and exterior auditory canal. Temporalis was broken and incised to expose temporal bone. […] The filter paper was removed after 30 min when the vascular became black. The localized tissue was washed with physiological brine, and sutured layer by layer. Then rats were placed back into the cages. By following the modified method of Bederson et al. […] (2) The animals were placed onto a smooth ground, and the resistance of contralateral shoulder to push was examined. “0” was recorded if the resistance of both shoulders were equal and strong; and “1” was recorded if the resistance of contralateral shoulder to push was decreased. […] (4) The tail of the rat was lifted 30 cm high away from the ground, and “1” was recorded if the animals ceaselessly circled contralaterally. “4” was full mark in accordance with the above-mentioned standard. The higher the score was, more severe the behavioral disorder of the animal was. 4. Results: The behavioral scores in each group were compared by student t test.

[3] = test system: thrombus of artery-vein bypass in rats; experiment: Effects on thrombosis of artery-vein bypass in rats; type: in vivo, SD rats; conditions: for Dry-weight of thrombus / Wet-weight of thrombus: once per day for 3 days; for Inhibition (%) of dry-weight of thrombus / Inhibition (%) of wet-weight of thrombus: vs. thrombus model group
Procedure: Testing methods are described in Chen-Qi, “Methodology for Pharmacological Research of Chinese Medicine”,People's Medical Publishing House, Sep. 1993, 1st ed., page 510. […] Equivalent amount of the vehicle was administered to the thrombus model group. The operation was conducted immediately after the final administration. […] The operation was conducted to separate the right common carotid artery and the left external jugular vein. A pre-weighed suture # 0 of 8 cm long was placed into the middle part of a polyethylene tube of 10 cm long. Then the tube was filled with normal saline, and connected at both ends to the cannula of 3 cm long filled with normal saline. One end of the tube was inserted into the left external jugular vein, and another end was inserted into the right common carotid artery. The blood flowed from the right common carotid artery to the polyethylene tube, and then flow back to the left external jugular vein, so as to construct a bypass circulation. […] The wet-weight of the thrombus was obtained by subtracting the weight of the suture and the paper from this total wet weight. […] The thrombus was taken out and weighed to obtain a total dry weight. The dry weight of the thrombus was obtained by subtracting the weight of the suture and the paper form this total dry weight. The results in each group were compared by student's t test. […] Testing Results

[4] = Thermal Stability; type: physicochemical; conditions: 60° C., 10 days, HPLC
[5] = test system: model rats of middle cerebral artery thrombosis (MCAT); experiment: Effects on cerebral infarct area of MCAT rats; type: in vivo, SD rats; conditions: for Cerebral infarct tissue weight/total brain weight (%): 24 h after operation, TTC staining; for Inhibition (%): cerebral infarct vs. model group; for cerebral infarct as compared with the model group (in words): 50 mg/kg, P<0.05
[6] = The Stability of Aqueous Solution; conditions: for wt % decomposed product: aqueous solution 0.2 mg/ml; for decomposed product detected (in words): after exposed to water for 24 hours
Procedure: Compounds were dissolved in water to form aqueous solutions in a concentration of 0.2 mg/ml, and the amount of decomposed products were measured.
The amounts of decomposed products were determined in accordance with the test described in Pharmacopoeia of P.R. China, 2000 edition, appendix VD of part two, by HPLC method, C18 column, mobile phase of acetonitrile:0.02M sodium dihydrogen phosphate=40:60, detecting wavelength of 230 nm, flow rate of 1 ml/min.

[7] = The Stability to Humidity (high humidity test); type: physicochemical; conditions: 10 days, HPLC purity
[8] = 50 mg/kg by gavage, vs. model group
[9] = 100 mg/kg by gavage, vs. model group
[10] = 200 mg/kg by gavage, vs. model group

Row | Compound | decomposed product detected, stability to light (in words) [1] | Scores 6 hours ([2]; 50 mg/kg by gavage) | Scores 24 hours ([2]; 50 mg/kg by gavage) | % inhibition at hour 24 [2, 8] [%] | Scores 6 hours ([2]; 100 mg/kg by gavage) | Scores 24 hours ([2]; 100 mg/kg by gavage) | % inhibition at hour 24 [2, 9] [%] | Scores 6 hours ([2]; 200 mg/kg by gavage) | Scores 24 hours ([2]; 200 mg/kg by gavage) | % inhibition at hour 24 [2, 10] [%] | decomposed product detected, thermal stability (in words) [4] | Cerebral infarct tissue weight/total brain weight (%) ([5]; 50 mg/kg by gavage) | Inhibition (%) ([5]; 50 mg/kg by gavage) | cerebral infarct as compared with the model group (in words) [5] | Cerebral infarct tissue weight/total brain weight (%) ([5]; 100 mg/kg by gavage) | Inhibition (%) ([5]; 100 mg/kg by gavage) | Cerebral infarct tissue weight/total brain weight (%) ([5]; 200 mg/kg by gavage) | Inhibition (%) ([5]; 200 mg/kg by gavage) | wt % decomposed product ([6]; 0 hr) [wt %] | wt % decomposed product ([6]; 1 hr) [wt %] | also measured
1 | CCCCC(=O)c1ccccc1C(=O)O.CCCCC(=O)c1ccccc1C(=O)O.c1ccc(CNCCNCc2ccccc2)cc1 [2-(α-n-pentanonyl)benzoate of N,N′-dibenzylethylene diamine] | no decomposed product | 3.45 ± 0.69 | 2.91 ± 0.70 | 20.05 | 3.45 ± 0.52 | 2.36 ± 0.67 | 36.73 | 3.27 ± 0.79 | 2.55 ± 0.52 | 31.64 | no decomposed product | 5.14 ± 2.17 | 30.63 | significantly reduced | 4.68 ± 1.69 | 41.06 | 4.60 ± 1.26 | 39.55 | – | – | Dry-weight of thrombus ([3]; 50 mg/kg by gavage): 39.0 ± 10.8 mg; Wet-weight of thrombus ([3]; 50 mg/kg by gavage): 207.1 ± 45.3 mg; Inhibition (%) of dry-weight of thrombus ([3]; 50 mg/kg by gavage): 23.98%; Inhibition (%) of wet-weight of thrombus ([3]; 50 mg/kg by gavage): 20.10%; Dry-weight of thrombus ([3]; 100 mg/kg by gavage): 29.9 ± 13.6 mg; Wet-weight of thrombus ([3]; 100 mg/kg by gavage): 157.9 ± 67.9 mg; Inhibition (%) of dry-weight of thrombus ([3]; 100 mg/kg by gavage): 41.72%; Inhibition (%) of wet-weight of thrombus ([3]; 100 mg/kg by gavage): 39.08%; Dry-weight of thrombus ([3]; 200 mg/kg by gavage): 32.3 ± 12.5 mg; Wet-weight of thrombus ([3]; 200 mg/kg by gavage): 191.7 ± 34.8 mg; Inhibition (%) of dry-weight of thrombus ([3]; 200 mg/kg by gavage): 37.04%; Inhibition (%) of wet-weight of thrombus ([3]; 200 mg/kg by gavage): 26.04%
2 | CCCCC(O)c1ccccc1C(=O)[O-].[K+] (stereo not drawn) [Potassium 2-(α-hydroxypentyl)benzoate] | – | 3.50 ± 0.71 | 3.30 ± 0.48 | – | 3.55 ± 0.52 | 3.00 ± 0.89 | – | 3.45 ± 0.52 | 2.73 ± 0.79 | – | – | 6.16 ± 2.46 | 16.87 | – | 5.73 ± 2.20 | 27.83 | 5.37 ± 2.00 | 29.43 | 0 | 0.2 | wt % decomposed product ([6]; 2 hr): 0.36 wt %; wt % decomposed product ([6]; 4 hr): 0.75 wt %; wt % decomposed product ([6]; 16 hr): 4.5 wt %; wt % decomposed product ([6]; 24 hr): 5.3 wt %; decomposition after absorbing moisture (in words) [7]: highly decomposed
3 | CCCCC(=O)c1ccccc1C(=O)[O-].[K+] [Potassium 2-(α-n-pentanonyl)benzoate, potassium 2-(α-n-pentanonyl)benzoate] | no decomposed product | 3.27 ± 0.79 | 2.91 ± 0.70 | – | 3.36 ± 0.67 | 2.82 ± 0.75 | – | 3.20 ± 0.63 | 2.10 ± 0.32***^,s | – | no decomposed product | 5.63 ± 1.52 | 24.02 | significantly reduced | 5.09 ± 2.04 | 35.89 | 4.38 ± 1.54 | 42.44 | 0 | 0 | decomposed product detected (in words) [6]: no decomposed product; wt % decomposed product ([6]; 2 hr): 0 wt %; wt % decomposed product ([6]; 4 hr): 0 wt %; wt % decomposed product ([6]; 16 hr): 0 wt %; wt % decomposed product ([6]; 24 hr): 0 wt %; Dry-weight of thrombus ([3]; 50 mg/kg by gavage): 38.3 ± 15.4 mg; Wet-weight of thrombus ([3]; 50 mg/kg by gavage): 208.8 ± 45.3 mg; Inhibition (%) of dry-weight of thrombus ([3]; 50 mg/kg by gavage): 25.34%; Inhibition (%) of wet-weight of thrombus ([3]; 50 mg/kg by gavage): 19.44%; Dry-weight of thrombus ([3]; 100 mg/kg by gavage): 35.6 ± 14.0 mg; Wet-weight of thrombus ([3]; 100 mg/kg by gavage): 192.6 ± 41.2 mg; Inhibition (%) of dry-weight of thrombus ([3]; 100 mg/kg by gavage): 30.60%; Inhibition (%) of wet-weight of thrombus ([3]; 100 mg/kg by gavage): 25.69%; Dry-weight of thrombus ([3]; 200 mg/kg by gavage): 28.3 ± 16.3 mg; Wet-weight of thrombus ([3]; 200 mg/kg by gavage): 157.0 ± 51.4 mg; Inhibition (%) of dry-weight of thrombus ([3]; 200 mg/kg by gavage): 44.83%; Inhibition (%) of wet-weight of thrombus ([3]; 200 mg/kg by gavage): 39.43%
4 | CCCCC(=O)c1ccccc1C(=O)[O-].[Na+] [Sodium 2-(α-n-pentanonyl)benzoate, sodium 2-(α-n-pentanonyl)benzoate] | no decomposed product | – | – | – | – | – | – | – | – | – | no decomposed product | – | – | significantly reduced | – | – | – | – | 0 | 0 | decomposed product detected (in words) [6]: no decomposed product; wt % decomposed product ([6]; 2 hr): 0 wt %; wt % decomposed product ([6]; 4 hr): 0 wt %; wt % decomposed product ([6]; 16 hr): 0 wt %; wt % decomposed product ([6]; 24 hr): 0 wt %
5 | Calcium 2-(α-hydroxypentyl)benzoate | – | 3.45 ± 0.52 | 3.36 ± 0.50 | 7.69 | 3.55 ± 0.52 | 3.09 ± 0.70 | 17.16 | 3.45 ± 0.52 | 2.91 ± 0.54 | 21.98 | – | 6.39 ± 2.33 | 13.77 | – | 5.82 ± 1.90 | 26.70 | 5.41 ± 1.77 | 28.91 | – | – | –
6 | N,N′-dibenzylethylenediamine 2-(α-hydroxypentyl)benzoate | – | 3.45 ± 0.52 | 3.09 ± 0.54 | 15.11 | 3.45 ± 0.52 | 2.91 ± 0.70 | 21.98 | 3.36 ± 0.67 | 2.82 ± 0.87 | 24.40 | – | 5.85 ± 2.32 | 21.05 | – | 5.50 ± 1.82 | 30.73 | 5.09 ± 2.14 | 33.11 | – | – | alleviation on neural symptoms at 24 hours after the operation (in words) ([2]; 50 mg/kg, vs. model group, P<0.01 or P<0.05): significantly alleviation
